Source: article PMC4028107, “Adenosine deaminase activity modulation by some street drug: molecular docking simulation and experimental investigation” (DARU Journal of Pharmaceutical Sciences, 2014)

How the values were obtained:
[1] = target: T1, adenosine deaminase (Bos taurus, UniProt P56658); assay: Fluorescence spectroscopy of ADA (Trp emission); type: binding, bovine; settings: excitation 290 nm, emission 300-400 nm, pH 7.4, enzyme 6 μM, compounds 1.7 to 73.4 μM
T1 construct: Adenosine deaminase (EC 3.5.4.4) extracted from bovine spleen; purchased sigma; host or cells: bovine spleen (tissue extract)
T1 sequence (P56658 1-363): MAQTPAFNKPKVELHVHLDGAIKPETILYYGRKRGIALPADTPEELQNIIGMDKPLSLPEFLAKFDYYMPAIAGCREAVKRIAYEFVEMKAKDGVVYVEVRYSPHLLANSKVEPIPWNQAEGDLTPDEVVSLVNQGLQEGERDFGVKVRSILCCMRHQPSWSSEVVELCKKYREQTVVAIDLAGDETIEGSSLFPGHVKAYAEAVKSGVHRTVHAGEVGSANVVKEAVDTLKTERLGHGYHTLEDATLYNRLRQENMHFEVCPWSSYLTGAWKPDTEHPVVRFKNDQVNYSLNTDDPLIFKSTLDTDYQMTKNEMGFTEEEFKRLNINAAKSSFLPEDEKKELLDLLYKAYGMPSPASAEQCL
Description: Fluorescence spectroscopy was performed on a Hitachi fluorescence spectrophotometer model MPF-4 with 1 cm path length fluorescence cuvette and final volume of 400 μL. The excitation wavelength was adjusted in 290 nm, and the emission was scanned every 1 nm in the range of 300 to 400 nm.

[2] = target: T2, Adenosine deaminase (EC 3.5.4.4) extracted from bovine spleen (Bos taurus, UniProt P56658); assay: biochemical; type: biochemical; settings: for IC50: 2 mg/ml adenosine deaminase enzyme, 37°C, 30 min incubation, PBS pH 7.4, compounds 5–300 μM
T2 construct: Adenosine deaminase (EC 3.5.4.4) extracted from bovine spleen; purchased sigma; host or cells: bovine spleen (tissue extract)
T2 sequence (P56658 1-363): T1 sequence (P56658 1-363)
Description: Adenosine deaminase (EC 3.5.4.4) extracted from bovine spleen was purchased from sigma, and all other used materials were of analytical grade and acquired from Merck. PBS that is used in assay was adjusted at 7.4, at which, enzyme has optimal activity in [38, 39]. All solutions were prepared in MilliQ (Millipore, USA) water.
Released ammonia resulted by enzyme activity was determined by specific Berthelot colorimetric method which was used for micro determination of ADA activity in serum. […] In this process sodium nitroprusside is used as the catalyst. The reaction was initiated by addition of adenosine as a substrate at 37°C to preincubated enzyme with different concentrations of tested compounds at different concentrations (5–300 μM). Finally, the enzymatic reaction was stopped at the end of 30 minutes of incubation by adding phenol nitroprusside solution. The mixture kept again for 30 minutes at 37°C before absorbance determination.
Obtained absorbance was normalized through blank sample, and IC50 values were calculated by Prism software (Ver. 5, GraphPad Software Inc., San Diego CA,).

[3] = target: T1, adenosine deaminase; assay: Circular dichroism spectroscopy of ADA; parameters: species or system bovine; settings: far-UV 200–260 nm, pH 7.4; cocaine concentration around 180 μM
Description: CD spectra were measured in the far-UV (200–260 nm) region with JASCO J-715 spectropolarimeter (Japan). JASCO J-715 software not only gave us the possibility of data smoothing, but also used to predict the secondary structure changes of the protein according to the statistical method. Each scan was recorded in 1 nm increments at 37°C, repeated three times, and averaged. The protein was in 0.1 M PBS buffer, pH = 7.4, and its concentration was adjusted to 2 mg/ml in 1 cm path length cuvette. The results were expressed in molar ellipticity [θ] (deg cm^2.dmol^−1).

SMILES	change in fluorescence spectra of ADA [1]	IC50 [2]	change in CD spectra of ADA [3]	concentration up to which ADA was activated [2]
COC(=O)[C@H]1[C@@H](OC(=O)c2ccccc2)C[C@@H]2CC[C@H]1N2C [Cocaine]	bathochromic shift	180 µM	drastic changes	–
CCOc1ccc2c3c1O[C@H]1[C@@H](O)C=C[C@H]4[C@@H](C2)N(C)CC[C@@]341 [Ethylmorphine]	do not show noticeable change and shift	35 µM	–	–
COC1=CC=C2[C@H]3Cc4ccc(OC)c5c4[C@@]2(CCN3C)[C@H]1O5 [Thebaine]	do not show noticeable change and shift	163 µM	–	50 µM
